Data: patent US20240000927A1, “IMMUNOMODULATORY AGENT” (THE QUEEN'S UNIVERSITY OF BELFAST, priority 2020, published 2024)

Experiments:
[1] = molecular target: T1, Toll-like receptor (TLR) 4 (Mus musculus, UniProt Q9QUK6); settings: reported, Ii et al. 2006; cited from earlier work
T1 sequence (Q9QUK6 26-835): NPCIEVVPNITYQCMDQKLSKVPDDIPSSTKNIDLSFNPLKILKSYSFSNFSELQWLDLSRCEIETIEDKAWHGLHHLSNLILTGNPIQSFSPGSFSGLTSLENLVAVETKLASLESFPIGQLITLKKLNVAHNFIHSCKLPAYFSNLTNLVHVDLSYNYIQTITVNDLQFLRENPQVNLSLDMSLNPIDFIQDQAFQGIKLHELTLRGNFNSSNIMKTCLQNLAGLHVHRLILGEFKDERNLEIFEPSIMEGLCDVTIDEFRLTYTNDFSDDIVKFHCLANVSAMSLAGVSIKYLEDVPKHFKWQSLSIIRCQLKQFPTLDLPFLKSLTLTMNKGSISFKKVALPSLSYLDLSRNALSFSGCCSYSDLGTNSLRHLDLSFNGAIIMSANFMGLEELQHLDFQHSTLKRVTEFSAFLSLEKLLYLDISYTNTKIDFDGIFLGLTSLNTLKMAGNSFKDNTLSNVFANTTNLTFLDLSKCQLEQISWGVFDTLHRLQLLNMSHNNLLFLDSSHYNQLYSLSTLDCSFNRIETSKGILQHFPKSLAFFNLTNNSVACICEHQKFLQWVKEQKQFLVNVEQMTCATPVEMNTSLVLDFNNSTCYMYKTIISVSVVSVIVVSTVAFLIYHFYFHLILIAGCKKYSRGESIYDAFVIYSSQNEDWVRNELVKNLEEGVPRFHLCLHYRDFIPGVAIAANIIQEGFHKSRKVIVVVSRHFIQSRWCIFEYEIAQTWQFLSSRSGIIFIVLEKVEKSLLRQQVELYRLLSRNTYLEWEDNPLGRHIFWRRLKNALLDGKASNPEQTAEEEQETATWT

[2] = tested on: RAW 264.7 macrophages; test: Nitrite concentration (Griess reaction) in macrophage culture medium; format: cell-based, murine; settings: LPS 1 ng/ml, stated to be the same as extracts at 1 mg/ml
Source text: Induction of iNOS results in the endogenous production of nitric oxide (NO) by conversion of L-arginine to citrulline (Murad 1998). NO is a key facilitator of inflammatory responses, and is only produced by macrophages activated through the classical pathway (ligation of TLRs) (Mosser 2003). Due to the highly reactive nature of NO, its formation is commonly indirectly measured (i.e. by measuring nitrite (NO2-), one of two primary stable non-volatile breakdown products of NO).
Nitrite (NO2—) concentration in culture medium was measured using the Griess reaction method, in accordance with the protocol provided by the manufacturer (Life Technologies, Paisley). […] The concentration of NO2- was measured colourimetrically at λ550 nm using a Tecan Safire2 microplate reader.
A standard solution of 0.1M sodium nitrite (NaNO2) was used to make serial dilutions in the range of 100-1 μM to quantitate NO2- concentrations by means of a standard curve.
To determine the amount of produced NO2— produced, 50 μl of medium from each well of the 96-well microtitre plate was aspirated post incubation and transferred to a fresh 96-well microtiter plate to which a solution of 50 μl sulfanilic acid 1% (10 mg/ml) in 5% phosphoric acid was added and incubated for 10 minutes at room temperature. […] The concentration of NO2— was measured colourimetrically (λ550 nm) using a Tecan Safire2 microplate reader. […]

[3] = molecular target: T1, Toll-like receptor (TLR) 4; test: TLR 4 inhibition assay with TAK-242 (nitrite production by macrophages); format: cell-based, murine; design: endogenous in cells; host or cells: RAW 264.7 murine macrophages; settings: TAK-242 10 nM, 18 h, RAW 264.7
Source text: TAK-242 is a small molecule which is a specific inhibitor of Toll-like receptor (TLR) 4, which inhibits the production of pro-inflammatory mediators by binding to Cys747 in the intracellular domain of TLR4. This prevents interactions between TLR4 and its adaptor molecules Toll/IL-1 receptor domain containing adaptor protein (TIRAP) and Toll/IL-1 receptor domain-containing adaptor protein inducing interferon-β-related adaptor molecule (TRAM). Consequently, LPS-induced signal transduction is inhibited, including downstream signalling transduction that results in the production of pro-inflammatory cytokines (Matsunaga et al. 2011). […] RAW 264.7 were prepared as described in Example 3 and subsequently seeded at a density of 1×10^5 cells/well in two 96-well microtitre plates. S. cordifolia fractions (100 l) SCAF 0 and SCAF 5 (1-0.001 mg/ml) were added in triplicate to one of the plates. The positive control was 1 ng/ml LPS and the negative control was 100 μl DMEM medium. The remaining plate was arranged in an identical manner. However, the fractions SCAF 0 and SCAF 5 and positive (LPS 1 ng/ml) and negative (medium) all contained TAK-242 at a concentration 10 nM. Plates were incubated for 18 h in an incubator at 5% CO2 at 37° C. After incubation, nitrite concentrations were determined using the Griess reagent.

Compound	IC50 [1]	levels of NO2− [2]	activation of macrophages (nitrite production) in the presence of TAK-242 [3]
CCOC(=O)C1=CCCC[C@H]1S(=O)(=O)Nc1ccc(F)cc1Cl [TAK-242]	1.1 to 11 nM	–	–
Lipopolysaccharide [LPS]	–	60 to 80 µmol/mL	inactivated
